The nature of the data set: physchem. As to conditions: 20 °C, water, thermodynamic from solid.

Converted amounts (≈) assume the structure as drawn.

Data on 1 compound can be found in patent EP0907364B1, “SUSTAINED RELEASE PHARMACEUTICAL COMPOSITIONS COMPRISING A DIBENZOTHIAZEPINE DERIVATIVE” (AstraZeneca AB, priority 1996, dated 1997).

By solubility (thermodynamic) is commonly meant solubility found after equilibrating the solid with the medium.

With `OCCOCCN1CCN(C2=Nc3ccccc3Sc3ccccc32)CC1` [11-[4-[2-(2-hydroxyethoxy)ethyl]-1-piperazinyl]dibenzo[b,f][1,4]-thiazepine], the thermodynamic solubility is 3290 µg/mL (≈ 8.58 mM).
